Values joined by “and” are separate entries in the source; they are usually repeats but may differ in a detail not shown here. Equal values may be shown once.
Key:
[1] = format: in vivo; details: CB57/BL6 mice; twice weekly, total of 4 dose fractions
Protocol: (§1) Toxicity studies were done in nontumor bearing CB-17 SCID mice (Taconic Biosciences). […] Each arm had n = 10 mice (5 male, 5 female mice). […] The vehicle group received an equal volume of saline (placebo). Weights were obtained twice weekly and mice were monitored daily for signs of toxicity. […] On target hematological and marrow toxicity which was evaluated by complete blood counts and marrow colony formation assay. An additional study was performed under identical conditions to evaluate additive dose effects. […] Each treatment group was composed of equal numbers of male and female mice to rule out gender-specific effects (n = 4 per treatment group per time point). Mice were followed for signs of acute toxicity for 2 weeks and 4 weeks before euthanasia. An additional group (n = 4) treated at 36 MBq/kg was euthanized after 72 h to assess early signs of toxicity by colony formation assays. This time course was chosen to best capture the nadir of bone marrow suppression. After euthanasia, blood was collected and femurs were dissected and processed for histopathology and bone marrow evaluation.
Supplementary Fi g u re 4: To le r a b ilit y studies to determine hematological and marrow toxicity of
[211At]PTT in CB57BL6 mice. a) Maximum tolerated dose finding studies fo r [211At]PTT administered
as 4 dose fractions given twice weekly in CB57BL6 mice. b) Complete blood counts assessed at 72 […]

[2] = parameters: method as in PMID 31072830; details: cited from earlier work
COG-N-519x = assay: Pre-clinical efficacy study, COG-N-519x PDX; format: in vivo; details: single mouse
Protocol: (§2) Patient demographics and genetic characteristics are listed in (Supplementary Tables 1, 2)[17]. The maximum tolerated dose (MTD) was determined to be 36 MBq/kg administered by intra-peritoneal injection twice weekly for a total of 4 dose fractions and this fractionated regimen was used in all studies (Supplementary Fig. 1)[18],[19]. […] Nine of 11 PDX models were MYCN amplified (Fig. 1b), which is a hallmark of high-risk neuroblastoma. Tumor response was measured as the maximum percent decrease in tumor volume after treatment and event-free survival (EFS) was measured by the area over the curve method with tumor events pre-defined by tumor growth exceeding 2 cm[3],[18].
The use of 2 mice per arm was based on the previously reported statistical analysis. PDX tumors were implanted into the right flank of 5 to 6-weeks old female mice weighing about 20–25 grams. […] Two additional dose levels of 12, and 24 MBq/kg/fraction were assessed in a subset of models and were administered as stated above. In two models treated at the 24 MBq/kg/fraction dose level we re-challenged tumor response at the time of tumor progression with an additional 4 dose fractions at 24 MBq/kg/fraction given twice weekly. Doses were prepared in 500 µL total volume. An equal volume of saline was used for the vehicle group. Tumors were measured using a digital caliper at the initiation of the study and two times per week during the treatment period. Tumor volumes were calculated as volume = ([…]∗0.5236)/1000. Weights were obtained twice weekly and mice were monitored daily for signs of toxicity. […] Tumor response was assessed by best response defined as greatest reduction in tumor volume following the last dose and is presented as percent change in tumor volume. Event-free survival was determined by area over the curve method that calculates the time to tumor event, which was defined as tumors reaching or exceeding a size ≥ 2 cm^3.
Animal studies were performed in female mice due to the lack of sex-related differences for [^211At]PTT tolerability from initial dose response studies performed in female and male mice. Female mice were chosen due to their underlying behavior towards other study subjects that reduced nonstudy-related causes for decreased wellness. Pre-clinical efficacy studies were performed through “single mouse testing” to more closely recapitulate a clinical trial. […] Number size for treatment groups was determined by model tumor growth reproducibility, which was previously shown to have less than 5% normal variation with at least two animals. Statistical tests for tumor response and event-free survival (EFS) were performed as a grouped analysis that included all tumor models treated at each respective dose level (n = 2 per model per dose level). Statistical differences between treatment groups for tumor response was performed by paired-model T-test that compared reduction in tumor volume for the 36 MBq/kg dose level vs. 24 MBq/kg or 12 MBq/kg. Event free survival was measured by area over the curve method to quantify time to event, which was set as tumor growth exceeding 2 cm[3],[19]. Differences in EFS were tested across all treated models for each respective dose level, and against untreated controls, by paired-model ANOVA analysis. Associations of drug target expression and response were performed by linear regression analysis of EFS and PARP1 mRNA expression. Genetic signatures were visually presented as a function of EFS and no statistical tests were applied. Blood and marrow toxicity studies were performed with n = 5 sample sizes and powered to detect >20% differences between untreated controls and treated animals. Results were tested for significance by one-way ANOVA comparison from untreated controls. Marrow colony formation assays were performed in replicates of 2 for each mouse subject, dependent on marrow isolation, and all replicates are included in final analyses. […]

COG-N-421x = assay: Pre-clinical efficacy study, COG-N-421x PDX; format: in vivo; details: 36 MBq/kg/fraction x 4 fractions, single mouse
Protocol: as §2
The use of 2 mice per arm was based on the previously reported statistical analysis. […] Two additional dose levels of 12, and 24 MBq/kg/fraction were assessed in a subset of models and were administered as stated above. […] Tumors were measured using a digital caliper at the initiation of the study and two times per week during the treatment period. Tumor volumes were calculated as volume = ((diameter^1/2 + diameter^2/2)^3∗0.5236)/1000. Weights were obtained twice weekly and mice were monitored daily for signs of toxicity. […] Tumor response was assessed by best response defined as greatest reduction in tumor volume following the last dose and is presented as percent change in tumor volume. […]

[3] = tested on: marrow progenitor cells (GEMM, GM); assay: Marrow toxicity by marrow progenitor colony formation assay; format: in vivo, CB57/BL6 mice
Protocol: as §1
After euthanasia, mouse hind limbs were dissected as previously described for bone and marrow isolation. The other hind limb was processed for bone marrow via centrifugation. Bone marrow pellets were resuspended in 1 X RBC Lysis Buffer (BioLegend, San Diego, CA) and rocked on a tilt-table for 5 minutes. Bone marrow cell pellet was isolated by centrifugation at 13,000 RPM on a tabletop centrifuge for 1 minute. Cells were resuspended in IMDM with 2% FBS (Gibco, ThermoFisher Scientific, Grand Island, New York) and counted on a Countess II Automated Cell Counter (ThermoFisher Scientific, Grand Island, NY).
Colony formation assays were performed per manufacturer’s protocol. In brief, 1.8 ×10^5 bone marrow cells suspended in 300 µL IMDM with 2% FBS were combined with 3 mL of Mouse Methylcellulose Complete Media (R&D Systems Inc, Minneapolis, MN). Gel mixture was syringe-pipetted in duplicate to lids of 6 cm culture dishes and housed with a 6 cm sterile water dish within a 25 cm culture dish. Cultures were incubated at 37 °C for 8 days prior to analysis on a microscope. Colonies were counted by one individual per manufacturer’s recommended protocol. Of note, at least 30 cells were required to call a colony positive.

[4] = 12 MBq/kg/fraction x 4 fractions
[5] = 24 MBq/kg/fraction x 4 fractions
[6] = 36 MBq/kg/fraction x 4 fractions
[7] = 4 wk after 2 dose fractions at 36 MBq/kg/fraction
[8] = 36 MBq/kg x 4 dose fractions, 72 hours post-treatment, replicate
[9] = 48 MBq/kg x 4 dose fractions, 72 hours post-treatment, replicate
[10] = 60 MBq/kg x 4 dose fractions, 72 hours post-treatment, replicate
[11] = dose escalation 36, 48, 60 MBq/kg x 4 fractions

SMILES: O=C1NCCn2c(-c3ccc([211At])cc3)nc3cccc1c32 [[^211At]PTT, Astatine-211-parthanatine]
- MTD [1]: 48 MBq/kg/fraction
- outcome of single dose ([2]; 1,480 kBq administered as a single dose): lethal
- outcome of fractionated dose ([2]; 1,480 kBq separated into 4 dose fractions given twice weekly): tolerated
- EFS by AOC method (COG-N-519x; [4]): 22.7688 days and 33.292 days
- Tumor response (% growth from study initiation at ~ 200 mm3) (COG-N-519x; [4]): -46.1538% and -36.8421%
- EFS by AOC method (COG-N-519x; [5]): 28.2857 days and 42.6471 days
- Tumor response (% growth from study initiation at ~ 200 mm3) (COG-N-519x; [5]): -83.871% and -100%
- EFS by AOC method (COG-N-519x; [6]): 82.4 Days and 100. 5 Days and 82.4108 Days and 100.511 Days
- Tumor response (% growth from study initiation at ~ 200 mm3) (COG-N-519x; [6]): -100%
- EFS by AOC method (COG-N-421x): 61.4391 days and 76.0056 days
- Tumor response (% growth from study initiation at ~ 200 mm3) (COG-N-421x): -100%
- time by which marrow recovery stabilized, GEMM and GM progenitor cells ([3]; 3 dose fractions at 36 MBq/kg): ≤ 2 weeks
- GEMM (CFU) [3, 7]: 4 CFU and 7.5 CFU and 6 CFU and 5 CFU
- GM (CFU) [3, 7]: 22 CFU and 36.5 CFU and 33 CFU and 24 CFU and 38 CFU
- GEMM (CFU) [3, 8]: 7 CFU and 3 CFU and 2 CFU and 8 CFU and 14 CFU and 5 CFU and 9 CFU
- GM (CFU) [3, 8]: 15 CFU and 10 CFU and 23 CFU and 13 CFU and 9 CFU
- GEMM (CFU) [3, 9]: 12 CFU and 5 CFU and 7 CFU and 3 CFU and 6 CFU
- GM (CFU) [3, 9]: 1 CFU and 5 CFU and 2 CFU and 12 CFU and 6 CFU and 7 CFU
- GEMM (CFU) [3, 10]: 2 CFU and 3 CFU and 8 CFU and 7 CFU and 6 CFU and 4 CFU
- GM (CFU) [3, 10]: 5 CFU and 8 CFU and 7 CFU and 4 CFU
- GEMM (CFU) ([3]; 72 hrs after 2 dose fractions at 36 MBq/kg/fraction): 4 CFU and 6 CFU and 3 CFU and 5 CFU and 4.5 CFU
- colony formation of early marrow progenitor cells (GEMM) [3, 11]: reduced only at the highest dose level evaluated (60 MBq/kg)
- colony formation of granulocyte and megakaryocyte progenitors [3, 11]: reduction in colony formation at all dose levels evaluated
- time of full recovery of colony formation ([3]; post treatment, 3 dose fractions at 36 MBq/kg): 4 weeks

Reference: PMC9671962 (Communications Biology, 2022)
